{"source": "patent US10130668B2", "about": "“Composition comprising Dendropanax morbifera extract or compound derived therefrom as active ingredient for preventing and treating benign prostatic hyperplasia” (priority 2012, dated 2018)", "key": {"[1]": {"test_system": "PSA (prostate specific antigen) mRNA, AR target gene", "assay": "PSA mRNA expression in LNCaP⋅FGC cells", "details": "48 hours", "method": "For the analysis of anti-androgen activity, the LNCaP⋅FGC cells, an androgen-dependent prostate cancer cell line, were used and the level of mRNA of PSA (Prostate specific antigen), which is one of the AR target genes, in prostate cancer was measured."}, "[2]": {"test_system": "mouse model with benign prostatic hyperplasia", "assay": "Prostate size in testosterone-induced benign prostatic hyperplasia animal model", "type": "in vivo, Sprague Dawley mice", "description": "First of all, the animals used for experiments were 11-week old male Sprague Dawley mice, which were purchased from Damul Science Co. (Daejeon, Republic of Korea). […] As a positive control group, the finasteride (2 mg/kg/day) was used and the Dendropanax morbifera extract was administered for 2 groups (0.5 and 2 mg/kg). 3 weeks after the drug administration, the mice were sacrificed and the results were observed. V, vehicle administration group; CTL, control group; TP, testosterone-propionate administration group; FS, finasteride administration group; […] CMC, carboxymethylcellulose administration group. […] From the previously described experiment schedule, blood and prostate were collected after measuring the body weight and sacrificing on the day after the last day of administration. The weight of removed prostate was measured after removing the surrounding fats and foreign substances and the weight ratio of prostate to body was calculated by the following equation and the result is listed in Table 4."}, "[3]": {"test_system": "PSA (prostate specific antigen)", "assay": "PSA content in blood of benign prostatic hyperplasia animal model (ELISA)", "type": "in vivo, Sprague Dawley mice", "details": "TP + drug 2 mg/kg", "text": "First of all, the animals used for experiments were 11-week old male Sprague Dawley mice, which were purchased from Damul Science Co. (Daejeon, Republic of Korea). They were provided with hard food and water frequently and were used in experiments after a week of adaptation period for laboratory environment and the animal experiments conducted herein were approved by Chonnam National University animal experiment ethics committee (IRB) (CNU IACUC-YB-R-2012-9).\nThe male Sprague Dawley mice were divided into the groups such as vehicle control group (V-CTL) that is an experimental group, the group administered with testosterone only (TP-CTL), the group administered with finasteride as positive control for testosterone (TP+FS) and the groups administered with Dendropanax morbifera (TP+DMH), and for each group, n was equal to 4 and overall experimental procedure is as illustrated in Table 3. […] As a positive control group, the finasteride (2 mg/kg/day) was used and the Dendropanax morbifera extract was administered for 2 groups (0.5 and 2 mg/kg).\nFrom the sacrificed mouse in the above example, the plasma was isolated from blood and the content of PSA was determined. PSA measurement was conducted using ELISA (MyBiosource, Arizona, USA) according to the manufacturer's experimental protocol and presented as pg/mL content."}}, "note": "Where “and” joins values, the source holds several entries; their conditions need not be identical. Equal values may be shown once. Entries after “also recorded” stand apart in the source; their conditions may differ."}
{"smiles": "C=CC(O)C#CC#CC=C[C@H](O)CCCCCCCC(=O)O", "note": "(stereo partly drawn) [HS5, 9,16R-dihydroxy-10,17-octadecadiene-12,14-diynoic acid]", "values": [{"measurement": "mRNA expression of PSA", "setting": "[1]", "result": "inhibit"}]}
{"smiles": "CC(C)(C)NC(=O)[C@H]1CC[C@H]2[C@@H]3CC[C@H]4NC(=O)C=C[C@]4(C)[C@H]3CC[C@]12C", "note": "[FS, finasteride]", "values": [{"measurement": "Weight of prostate", "setting": "[2]; TP 3 mg/kg s.c. + drug 2 mg/kg p.o. daily for 3 weeks", "result": "0.95 ± 0.12", "unit": "g"}, {"measurement": "prostate %/body weight (w/w)", "setting": "[2]; TP + drug 2 mg/kg p.o.", "result": "*0.22 ± 0.018%"}, {"measurement": "% TP-CTL ratio", "setting": "[2]; TP + drug 2 mg/kg p.o., relative to testosterone-only control", "result": "74.3% and 74.3 ± 3.2%"}, {"measurement": "% V-CTL ratio", "setting": "[2]; TP + drug 2 mg/kg p.o., relative to vehicle control", "result": "185.7 ± 15.1", "unit": "%"}, {"measurement": "% Vehicle control", "setting": "[3]; blood PSA", "result": "18.7 ± 5.0", "unit": "%"}, {"measurement": "% TP control", "setting": "[3]; blood PSA, relative to TP (3 mg/kg) only", "result": 34.6, "unit": "%"}, {"measurement": "PSA", "setting": "[3]; plasma", "result": "*323.0 ± 85.0 pg/mL"}]}
{"smiles": "C=C[C@H](O)C#CC#CC=CC(O)CCCCCCCC(=O)O", "note": "(stereo partly drawn) [HS3, 9,16S-dihydroxy-10,17-octadecadiene-12,14-diynoic acid]", "values": [{"measurement": "mRNA expression of PSA", "setting": "[1]", "result": "inhibit"}]}
{"smiles": "C=CC(O)C#CC#CC/C=C\\CCCCCCCC(=O)O", "note": "(stereo not shown) [HS7, (9Z)-16-hydroxy-9,17-octadecadiene-12,14-diynoic acid]", "values": [{"measurement": "mRNA expression of PSA", "setting": "[1]", "result": "inhibit; also recorded: most effective"}]}
